Assay results from patent US20050031715A1, “Natural preservative comprising heated garlic extract and method for preparing thereof” (SEJONG UNIVERSITY, priority 2003, published 2005).

Key:
Assay type in all cases: cell-based
[1] = system: Candida utilis ATCC 42416; test: Antimicrobial activity (MIC) over storage time at 37° C.; settings: stored at 37° C., 30 days, heated extract: 121° C. for 120 min
Method: (§1) In order to compare the antibacterial activity and the antifungal activity of the garlic extract of Example 1 prepared by heating at 121° C., according to the heating time, MIC (minimum inhibitory concentration) was measured for the samples of the heated garlic extract. The MIC represents minimum concentration of material to inhibit the growth of certain type of microorganism. It is understood that the lower the MIC of a material, the higher the antimicrobial activity of the material. The inhibition of microbial growth was measured by viable count method based on Spiral Autoplate System of Spiral Biotech Inc. Three separate experiments were carried out for each sample and the highest value was taken as the MIC of the sample.
Antimicrobial activity of the garlic extract prepared by heating at 121° C. for 120 min in Example 1, the fresh garlic extract and the AITC solution was measured for Candida utilis ATCC 42416, over storage time. Candida utilis ATCC 42416 used in this Test Example was kindly provided from Dr. Henry P. Fleming at the Food Fermentation Laboratory of the North Carolina State University in USA. […] From the first day to the 30th day of the storage, the MIC was measured everyday or every two days using the viable count method described in Test Example 1.

[2] = system: Staphylococcus aureus B33; test: MIC, viable count method; settings: 24 hrs, heated garlic: 121° C. for 45 min
Method: as §1
(§2) Antimicrobial activity was measured for the garlic extract heated at 121° C. for 45 min of Example 1, the fresh garlic extract and the AITC solution which had been prepared in Comparative Examples. Conditions for the viable count method, the medium and initial number of microorganisms inoculated were the same as those described in the above Test Examples. The MIC was measured at 24 hrs or 48 hrs after incubating the bacteria or the yeasts, respectively.
(§3) Staphylococcus aureus B33, Escherichia coli B34, Enterobacter aerogenes B146, Leuconostoc mesenteroides LA10, Pediococcus pentosaceus LA3, Lactobacillus plantarum LA97, Pichia membranifaciens Y20, Saccharomyces cerevisiae ATCC 4126 and Candida utilis ATCC 42416 used in this Test Example were kindly provided from Dr. Henry P. Fleming at the Food Fermentation Laboratory of the North Carolina State University in USA. Candida albicans HY1 was separated from an infant with oral candidiasis. In addition, Candida albicans KCTC 7121 and 7965 were purchased from Korean Collection for Type Cultures (KCTC) and Zygosaccharomyces bisporus KCCM 50168, Zygosaccharomyces rouxii (soya) KCCM 11300, Zygosaccharomyces rouxii KCCM 11303, Zygosaccharomyces rouxii (sake) KCCM 50523 and Zygosaccharomyces rouxii (gracilis) KCCM 50546 were obtained from KCCM (Korean Culture Center of Microorganisms).

[3] = system: Candida albicans (Clinical); test: MIC, viable count method; settings: 48 hrs, heated garlic: 121° C. for 45 min
Method: as §1, §2, §3

[4] = system: Leuconostoc mesenteroides LA10; test: MIC, viable count method; settings: 24 hrs, heated garlic: 121° C. for 45 min
Method: as §1, §2, §3

[5] = system: Enterobacter aerogenes B146; test: MIC, viable count method; settings: 24 hrs, heated garlic: 121° C. for 45 min
Method: as §1, §2, §3

[6] = system: Candida albicans KCTC 7965; test: MIC, viable count method; settings: 48 hrs, heated garlic: 121° C. for 45 min
Method: as §1, §2, §3

[7] = system: Candida utilis ATCC 42416; test: MIC, viable count method; settings: 48 hrs, heated garlic: 121° C. for 45 min
Method: as §1, §2, §3

[8] = system: Zygosaccharomyces bisporus KCCM 50168; test: MIC, viable count method; settings: 48 hrs, heated garlic: 121° C. for 45 min
Method: as §1, §2, §3

[9] = system: Zygosaccharomyces rouxii KCCM 11300; test: MIC, viable count method; settings: 48 hrs, heated garlic: 121° C. for 45 min
Method: as §1, §2, §3

[10] = system: Zygosaccharomyces rouxii KCCM 50546; test: MIC, viable count method; settings: 48 hrs, heated garlic: 121° C. for 45 min
Method: as §1, §2, §3

[11] = system: Lactobacillus plantarum LA97; test: MIC, viable count method; settings: 24 hrs, heated garlic: 121° C. for 45 min
Method: as §1, §2, §3

[12] = system: Zygosaccharomyces rouxii KCCM 11303; test: MIC, viable count method; settings: 48 hrs, heated garlic: 121° C. for 45 min
Method: as §1, §2, §3

[13] = system: Pediococcus pentosaceus LA3; test: MIC, viable count method; settings: 24 hrs, heated garlic: 121° C. for 45 min
Method: as §1, §2, §3

[14] = system: Zygosaccharomyces rouxii KCCM 50523; test: MIC, viable count method; settings: 48 hrs, heated garlic: 121° C. for 45 min
Method: as §1, §2, §3

[15] = system: Escherichia coli B34; test: MIC, viable count method; settings: 24 hrs, heated garlic: 121° C. for 45 min
Method: as §1, §2, §3

[16] = system: Candida albicans KCTC 7121; test: MIC, viable count method; settings: 48 hrs, heated garlic: 121° C. for 45 min
Method: as §1, §2, §3

[17] = system: Saccharomyces cerevisiae ATCC 4126; test: MIC, viable count method; settings: 48 hrs, heated garlic: 121° C. for 45 min
Method: as §1, §2, §3

[18] = system: Pichia membranefaciens Y20; test: MIC, viable count method; settings: 48 hrs, heated garlic: 121° C. for 45 min
Method: as §1, §2, §3

[19] = system: Candida utilis ATCC 42416; test: Antimicrobial activity (log CFU/Ml) over pH condition; settings: 30° C., 24 hrs
Method: Antimicrobial activity of the garlic extract heated at 121° C. for 120 min in Example 1 was measured for Candida utilis ATCC 42416, under various pH conditions. […] For a control, YMPGB medium without comprising any preservative was used. Candida utilis ATCC 42416 used in this Test Example was kindly provided from Dr. Henry P. Fleming at the Food Fermentation Laboratory of the North Carolina State University in USA. […] Then, Candida utilis ATCC 42416 was inoculated with an initial number of 2.1-2.3×10^5 CFU/mL and subsequently incubated at 30° C. for 24 hrs. After completing the incubation, the value of log CFU/Ml was measured by using the viable count method described above.

## C=CCN=C=S [AITC solution, allyl isothiocyanate]
[1]
  stability of antifungal activity over storage time: very unstable
[2]
  MIC: 0.015 ± 0.0006 volume %
[3]
  MIC: 0.0003 ± 0 volume %
[4]
  MIC: 0.04 ± 0.0023 volume %
[5]
  MIC: 0.02 ± 0.002 volume %
[6]
  MIC: 0.0004 ± 0.0001 volume %
[7]
  MIC: 0.0004 ± 0.0001 volume %
[8]
  MIC: 0.0002 ± 0 volume %
[9]
  MIC: 0.0002 ± 0 volume %
[10]
  MIC: 0.0004 ± 0.0001 volume %
[11]
  MIC: 0.02 ± 0 volume %
[12]
  MIC: 0.0004 ± 0.0001 volume %
[13]
  MIC: 0.02 ± 0.0012 volume %
[14]
  MIC: 0.0005 ± 0.0001 volume %
[15]
  MIC: 0.01 ± 0.0006 volume %
[16]
  MIC: 0.0003 ± 0.0001 volume %
[17]
  MIC: 0.0002 ± 0.0001 volume %
[18]
  MIC: 0.0001 ± 0 volume %

## C/C=C/C=C/C(=O)[O-].[K+] [potassium sorbate]
[19]; pH 4 to 9, heated garlic extract (121° C., 120 min) 0.5 volume %, potassium sorbate 0.1 weight %
  antimicrobial activity, dependence on pH: significantly affected by pH
[19]; pH 5, 0.1 weight %
  antimicrobial activity at pH 5: high
[19]; pH 6, 0.1 weight %
  antimicrobial activity at pH 6: dropped to almost zero
